Source: PubChem BioAssay (NCI)
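Abbreviation: GI50, concentration required for 50% inhibition of growth. TGI marks complete inhibition of growth.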

What was measured:
Test in all cases: growth of human tumour cells (NCI), 384-well format
[1] = test system: SF-539 CNS
[2] = test system: UACC-257 melanoma
[3] = test system: MDA-MB-435 melanoma
[4] = test system: HCT-116 colon
[5] = test system: HS 578T breast
[6] = test system: UO-31 renal
[7] = test system: M14 melanoma
[8] = test system: SF-268 CNS
[9] = test system: SR leukemia
[10] = test system: TK-10 renal
[11] = test system: SNB-19 CNS
[12] = test system: CAKI-1 renal
[13] = test system: RXF 393 renal
[14] = test system: SK-MEL-2 melanoma
[15] = test system: HOP-62 NSCLC
[16] = test system: HT29 colon
[17] = test system: SF-295 CNS
[18] = test system: A549 NSCLC
[19] = test system: SW-620 colon
[20] = test system: SN12C renal
[21] = test system: OVCAR-5 ovarian
[22] = test system: MDA-MB-468 breast
[23] = test system: UACC-62 melanoma
[24] = test system: K-562 leukemia
[25] = test system: NCI-H226 lung
[26] = test system: SNB-75 CNS
[27] = test system: MALME-3M melanoma
[28] = test system: NCI/ADR-RES ovarian
[29] = test system: NCI-H460 NSCLC
[30] = test system: NCI-H23 lung
[31] = test system: SK-MEL-5 melanoma
[32] = test system: MOLT-4 leukemia
[33] = test system: LOX IMVI melanoma
[34] = test system: 786-0 renal
[35] = test system: CCRF-CEM leukemia
[36] = test system: T-47D breast
[37] = test system: OVCAR-4 ovarian
[38] = test system: BT-549 breast
[39] = test system: MCF7 breast
[40] = test system: U251 glioblastoma
[41] = test system: EKVX NSCLC
[42] = test system: COLO 205 colon
[43] = test system: OVCAR-8 ovarian
[44] = test system: RPMI-8226 leukemia
[45] = test system: SK-OV-3 ovarian
[46] = test system: A498 renal
[47] = test system: IGROV1 ovarian
[48] = test system: NCI-H322M lung
[49] = test system: HOP-92 NSCLC
[50] = test system: HL-60(TB) leukemia
[51] = test system: MDA-MB-231 breast
[52] = test system: OVCAR-3 ovarian
[53] = test system: SK-MEL-28 melanoma
[54] = test system: HCC-2998 colon
[55] = test system: DU-145 prostate
[56] = test system: PC-3 prostate
[57] = test system: NCI-H522 lung
[58] = test system: HCT-15 colon
[59] = test system: ACHN renal
[60] = test system: KM12 colon

With `C[C@@H](Oc1cc(-c2cnn(C3CCNCC3)c2)cnc1N)c1c(Cl)cc(F)cc1Cl` the GI50 [1] was 1.7 µM, the TGI [1] was 3.65 µM and the GI50 [2] was 1.67 µM. For the same molecule, the TGI [2] was 3.04 µM, the GI50 [3] was 2.57 µM and the TGI [3] was 6.79 µM. It also gave a GI50 [4] of 0.728 µM, a TGI [4] of 1.97 µM and a GI50 [5] of 1.48 µM. It also gave a TGI [5] of 3.71 µM, a GI50 [6] of 2.64 µM and a TGI [6] of 6.43 µM. The GI50 [7] was 1.49 µM, the TGI [7] was 2.83 µM and the GI50 [8] was 2.21 µM. The TGI [8] was 5.32 µM, the GI50 [9] was 0.0423 µM and the TGI [9] was 0.0738 µM. The GI50 [10] was 3.66 µM, the TGI [10] was 7.63 µM and the GI50 [11] was 3.87 µM. It also gave a TGI [11] of 8.61 µM, a GI50 [12] of 1.35 µM and a TGI [12] of 2.98 µM. The GI50 [13] was 1.94 µM, the TGI [13] was 3.61 µM and the GI50 [14] was 1.45 µM. For the same molecule, the TGI [14] was 2.76 µM, the GI50 [15] was 2.16 µM and the TGI [15] was 6.37 µM. For the same molecule, the GI50 [16] was 1.02 µM, the TGI [16] was 2.3 µM and the GI50 [17] was 1.21 µM. The TGI [17] was 4.3 µM, the GI50 [18] was 0.86 µM and the TGI [18] was 4.42 µM. It also gave a GI50 [19] of 1.25 µM, a TGI [19] of 4.65 µM and a GI50 [20] of 2.11 µM. It also gave a TGI [20] of 8.7 µM, a GI50 [21] of 2.22 µM and a TGI [21] of 6.92 µM. The GI50 [22] was 0.725 µM, the TGI [22] was 1.56 µM and the GI50 [23] was 1.39 µM. For the same molecule, the TGI [23] was 3.09 µM, the GI50 [24] was 0.131 µM and the TGI [24] was 0.262 µM. For the same molecule, the GI50 [25] was 1.25 µM, the TGI [25] was 3.25 µM and the GI50 [26] was 1.9 µM. It also gave a TGI [26] of 3.85 µM, a GI50 [27] of 1.23 µM and a TGI [27] of 2.48 µM. The GI50 [28] was 6.36 µM, the TGI [28] was 16 µM and the GI50 [29] was 0.529 µM. It also gave a TGI [29] of 2.65 µM, a GI50 [30] of 0.641 µM and a TGI [30] of 2.42 µM. For the same molecule, the GI50 [31] was 1.39 µM, the TGI [31] was 2.7 µM and the GI50 [32] was 0.196 µM. The TGI [32] was 0.377 µM, the GI50 [33] was 1.33 µM and the TGI [33] was 2.63 µM. The GI50 [34] was 1.48 µM, the TGI [34] was 2.96 µM and the GI50 [35] was 0.277 µM. It also gave a TGI [35] of 0.66 µM, a GI50 [36] of 2.19 µM and a TGI [36] of 6.11 µM. It also gave a GI50 [37] of 5.81 µM, a TGI [37] of 11 µM and a GI50 [38] of 1.85 µM. It also gave a TGI [38] of 3.45 µM, a GI50 [39] of 0.614 µM and a TGI [39] of 1.86 µM. For the same molecule, the GI50 [40] was 2.78 µM, the TGI [40] was 7.16 µM and the GI50 [41] was 2.2 µM. The TGI [41] was 6.7 µM, the GI50 [42] was 0.971 µM and the TGI [42] was 2.39 µM. It also gave a GI50 [43] of 2.03 µM, a TGI [43] of 5.41 µM and a GI50 [44] of 1.16 µM. It also gave a TGI [44] of 2.97 µM, a GI50 [45] of 5.4 µM and a TGI [45] of 9.79 µM. It also gave a GI50 [46] of 1.65 µM, a TGI [46] of 3.84 µM and a GI50 [47] of 2.77 µM. For the same molecule, the TGI [47] was 7.26 µM, the GI50 [48] was 2.88 µM and the TGI [48] was 8.37 µM. For the same molecule, the GI50 [49] was 1.03 µM, the TGI [49] was 2.36 µM and the GI50 [50] was 0.256 µM. It also gave a TGI [50] of 0.485 µM, a GI50 [51] of 1.55 µM and a TGI [51] of 3.49 µM. The GI50 [52] was 2.54 µM, the TGI [52] was 6.47 µM and the GI50 [53] was 1.6 µM. It also gave a TGI [53] of 3.09 µM, a GI50 [54] of 2.21 µM and a TGI [54] of 4.91 µM. For the same molecule, the GI50 [55] was 2.09 µM, the TGI [55] was 6.25 µM and the GI50 [56] was 1.94 µM. The TGI [56] was 5.57 µM, the GI50 [57] was 3.21 µM and the TGI [57] was 7.29 µM. For the same molecule, the GI50 [58] was 1.72 µM, the TGI [58] was 5.47 µM and the GI50 [59] was 1.89 µM. The TGI [59] was 5.77 µM, the GI50 [60] was 0.0431 µM and the TGI [60] was 2.27 µM.
`CCS(=O)(=O)N1CCN(c2ccc(Nc3ncc(C(N)=O)c(NC4CC4)n3)cc2)CC1` gave a GI50 [1] of 1.18 µM, a TGI [1] of 2.73 µM and a GI50 [2] of 10.2 µM. The TGI [2] was 63 µM, the GI50 [3] was 1.63 µM and the TGI [3] was 8.98 µM. For the same molecule, the GI50 [4] was 3.72 µM, the TGI [4] was 91.1 µM and the GI50 [5] was 2.01 µM. The TGI [5] was 4.45 µM, the GI50 [6] was 2.92 µM and the TGI [6] was > 100 µM. For the same molecule, the GI50 [7] was 0.301 µM, the TGI [7] was 3.42 µM and the GI50 [8] was 1.9 µM. For the same molecule, the TGI [8] was 21.5 µM, the GI50 [9] was 0.368 µM and the TGI [9] was 1.29 µM. It also gave a GI50 [10] of 2.2 µM, a TGI [10] of 5.5 µM and a GI50 [11] of 8.88 µM. The TGI [11] was > 100 µM, the GI50 [12] was 6.05 µM and the TGI [12] was > 100 µM. It also gave a GI50 [13] of 1.51 µM, a TGI [13] of 3.73 µM and a GI50 [14] of 1.87 µM. For the same molecule, the TGI [14] was 3.89 µM, the GI50 [15] was 1.89 µM and the TGI [15] was 5.01 µM. It also gave a GI50 [16] of 4.09 µM, a TGI [16] of 56.4 µM and a GI50 [17] of 1.26 µM. For the same molecule, the TGI [17] was 3.43 µM, the GI50 [18] was 1.83 µM and the TGI [18] was > 100 µM. For the same molecule, the GI50 [19] was 44.9 µM, the TGI [19] was > 100 µM and the GI50 [20] was 1.76 µM. The TGI [20] was 10.2 µM, the GI50 [21] was 4.25 µM and the TGI [21] was 18.7 µM. It also gave a GI50 [22] of 2.05 µM, a TGI [22] of 3.75 µM and a GI50 [23] of 9.42 µM. The TGI [23] was 23.9 µM, the GI50 [24] was 2.06 µM and the TGI [24] was 8.1 µM. It also gave a GI50 [25] of 0.633 µM, a TGI [25] of 10.6 µM and a GI50 [26] of 4.03 µM. It also gave a TGI [26] of 8.56 µM, a GI50 [27] of 0.539 µM and a TGI [27] of 4.14 µM. The GI50 [28] was 7.08 µM, the TGI [28] was 28.6 µM and the GI50 [29] was 3.17 µM. For the same molecule, the TGI [29] was 51.7 µM, the GI50 [30] was 1.29 µM and the TGI [30] was 4.25 µM. The GI50 [31] was 1.39 µM, the TGI [31] was 4.65 µM and the GI50 [32] was 0.381 µM. For the same molecule, the TGI [32] was 1.54 µM, the GI50 [33] was 2.01 µM and the TGI [33] was 13.3 µM. It also gave a GI50 [34] of 1.6 µM, a TGI [34] of 3.41 µM and a GI50 [35] of 0.366 µM. It also gave a TGI [35] of 1.27 µM, a GI50 [36] of 2.23 µM and a TGI [36] of 4.43 µM. For the same molecule, the GI50 [37] was 2.06 µM, the TGI [37] was 5.72 µM and the GI50 [38] was 1.1 µM. For the same molecule, the TGI [38] was 2.51 µM, the GI50 [39] was 1.41 µM and the TGI [39] was 22.3 µM. The GI50 [40] was 6.79 µM, the TGI [40] was > 100 µM and the GI50 [41] was 1.92 µM. It also gave a TGI [41] of 10.2 µM, a GI50 [42] of 0.485 µM and a TGI [42] of 2.18 µM. For the same molecule, the GI50 [43] was 0.371 µM, the TGI [43] was 1.4 µM and the GI50 [44] was 0.155 µM. For the same molecule, the TGI [44] was 0.401 µM, the GI50 [46] was 1.68 µM and the TGI [46] was 5.19 µM. It also gave a GI50 [47] of 2.82 µM, a TGI [47] of 16.3 µM and a GI50 [48] of 1.59 µM. For the same molecule, the TGI [48] was 3.93 µM, the GI50 [49] was 3.72 µM and the TGI [49] was 14.9 µM. For the same molecule, the GI50 [50] was 0.418 µM, the TGI [50] was 2.04 µM and the GI50 [51] was 2.93 µM. For the same molecule, the TGI [51] was 33.6 µM, the GI50 [52] was 2.61 µM and the TGI [52] was 7.63 µM. The GI50 [53] was 2.93 µM, the TGI [53] was 50.7 µM and the GI50 [54] was 2.5 µM. For the same molecule, the TGI [54] was 5.15 µM, the GI50 [55] was 2.82 µM and the TGI [55] was 18.8 µM. For the same molecule, the GI50 [56] was 10.4 µM, the TGI [56] was > 100 µM and the GI50 [57] was 0.674 µM. It also gave a TGI [57] of 4.97 µM, a GI50 [58] of 1.58 µM and a TGI [58] of 3.27 µM. The GI50 [59] was 4.3 µM, the TGI [59] was > 100 µM and the GI50 [60] was 0.44 µM. It also gave a TGI [60] of 12 µM.
